Patent publication US20090233999A1, “COMPOSITIONS AND THERAPEUTIC METHODS INVOLVING ISOFLAVONES AND ANALOGUES THEREOF” (NOVOGEN RESEARCH PTY LTD, priority 1999, published 2009)
Marks after values point to notes of the source that are not given here. Blank lines part the entries; values can stand above or below the compound they belong to.

Tests used:
TNFα = test: LPS-induced TNFα synthesis in RAW 264.7 murine macrophages; type: cell-based, mouse; conditions: 10 μM; RAW 264.7, LPS
Description: Subconfluent RAW 264.7 cells were seeded into 24-well plates at 5×10^5 cells per well and allowed to adhere for 1 hr. Cells were then treated either test compound (in 0.025% DMSO) or vehicle alone, and incubated for 1 hr. LPS 50 ng/ml (LPS—Sigma-Aldrich) was then added. After incubation for 16 hrs, culture media was collected and stored at −80° C. TNFα measurement using an ELISA (Becton Dickinson).

[1] = DPPH free radical scavenging; conditions: DPPH 0.1 mM, 20 minutes; read-out: Free radical scavenging ability EC50
Description: The antioxidant (free radical trapping) activity of test compounds was assessed using the stable free radical compound 2,2-diphenyl-1-picrylhydrazyl (DPPH). A stock solution of DPPH was prepared at a concentration of 0.1 mM in ethanol and mixed for 10 minutes prior to use. Test compounds at a concentration of 100 μM were reacted with DPPH for 20 minutes, after which time the absorbance at 517 nm was determined and the change in absorbance compared to a reagent blank (DPPH with ethanol alone). A dose response curve was produced for those compounds with free radical scavenging activity (ΔAbs>0.3) at 100 μM. The IC50 value was estimated as the concentration of test compound that caused a 0.6 change in absorbance (with 1.2 absorbance units representing total scavenging of the DPPH radical).

red blood cells = test: Peroxyl radical (AAPH)-induced red blood cell lysis; type: cell-based; conditions: 10 μM; AAPH-induced RBC lysis; vehicle 40.0
Description: Freshly collected heparinised venous blood (10 ml, on ice) was aliquotted into 1.8 ml sterile eppendorf tubes and centrifuged for 10 minutes at 2600 rpm at 4° C. Plasma and buffy coat layers were removed (approximately 900 μl) and packed red blood cells (RBC) were then washed by the addition of 900 μl of sterile, ice cold PBS. This washing procedure was repeated twice. Packed RBC were resuspended by the addition of 900 μl of ice-cold, sterile PBS (and termed RBC stock). RBC stocks were stored at 4° C. for a maximum of three days. All working suspensions of RBC were prepared fresh daily by diluting 200 μl of RBC stock into 10 ml of ice-cold, sterile PBS and 50 μl added to each well.
The free radical generator AAPH (1.22 gm) was dissolved in 7.5 ml of PBS to yield a 4× stock at 600 mM and 50 μl aliquots (final concentration of 150 mM) were then added to each well to initiate the lysis assay. Test compounds were examined at […] (in DMSO 0.25%). Appropriate controls were included in each experiment. Peroxyl-induced RBC lysis assays were performed in 96-flat bottom well microtitre plates with a total volume of 200 μl per well. Turbidity of RBC suspensions were monitored using a Tecan microplate reader at 690 nm (37° C.) with gentle vortexing. Assays were performed in quadruplicate and readings were taken every 5 minutes over 5 hours. RBC lysis curves were constructed by plotting absorbance (mean of 4 readings) against time. Time to half-lysis was calculated by taking the highest absorbance reading (no lysis) and the lowest absorbance reading (maximum lysis). The sum of these two readings divided by two gave the absorbance at half-lysis. Simple regression analysis was used to calculate the time at which half-lysis absorbance occurred.

superoxide = test: Extracellular superoxide production by differentiated HL-60 cells (cytochrome C reduction); type: cell-based, human; conditions: for extracellular superoxide production, % change compared with vehicle control: HL-60, PMA; for inhibition of superoxide production: Cpd. 16 at 100 μM
Description: The human promyeloblast cell line HL-60 can be differentiated into neutrophil-like cells, which then produce ROS when activated. HL-60 cells were grown in RPMI-1640 medium containing glutamine and supplemented with FBS 20%. They were differentiated by culturing for 6 days in medium containing DMSO 1.25%, after which they were washed, centrifuged and incubated at 37° C. for 5 minutes with cytochalasin before transfer to PBS containing cytochrome C and test compound. After a 5 minute incubation, phorbol myristate acetate (PMA) was added to activate the HL-60 cells, which were then incubated for a further 10 minutes. The cells were then pelleted by centrifugation, and the change in absorbance due to reduction of cytochrome C in the cell-free supernatant was measured at 550 nm. The increase in absorbance is a direct measure of extracellular superoxide production by the cells, and a reduction in those samples incubated with test compounds would indicate anti-oxidant activity. Samples were examined in duplicate, and the assay done three times.

HCASMC = test: Proliferation of human coronary artery smooth muscle cells; type: cell-based; conditions: VSMC, 120 h, five days, MTT
Description: Human coronary smooth muscle cells (HCASMC—Clonetics) supplied at passage 3 and used for up to a further 12 population doublings, were seeded into 96 well plates at a low seeding rate, 2-5×10^3 cells per well and allowed to attach and proliferate to 30-40% confluence for 24-48 hours. Prior to inoculation the medium was changed to fresh growth medium. Test compounds were prepared in growth medium and added to plates so that the final concentrations were a series from 150 μM to 0.6 μM. The cells were incubated for five days, cell number assessed using MTT and an IC50 for each compound calculated.

[2] = test system: BALB/c mice (AA-induced ear swelling); test: Murine ear inflammation assay, AA-induced ear swelling; type: in vivo, mouse; conditions: 25 mg/kg i/p; for % Change compared with vehicle / Change in ear thickness (mean ± SD, ×0.01 mm): AA, 1 hr post-AA
Description: (§1) Female BALB/c mice (ARC, WA, Australia), weighing 15-21 g, and maintained on an isoflavone-free diet (Gordon's Specialty Stock Foods, Yanderra, NSW) for at least seven days, were randomised into test groups of five or six. To reduce animal use, mice had ear swelling induced by applying AA (Sigma, Steinheim, Germany) initially, and then by phorbol 12-Myristate 13-acetate (PMA—Sigma, Mo., USA) one week later.
(§2) Test compounds were dissolved in polyethylene glycol (PEG) 400 (Sigma, St. Louis, Mo., USA):phosphate buffered saline 1:1 and injected intraperitoneally (i/p) at a dose of 25 mg/kg either 30 min prior to AA treatment or 1 hr prior to PMA treatment. Mice were anaesthetised using isoflurane (Veterinary Companies of Australia Pty Ltd, NSW, Australia) and baseline thickness of both ears was measured using a spring micrometer (Interapid, Zurich, Switzerland). Each mouse received a total of 20 μL of either AA in ethanol (50 mg/ml) or PMA in acetone (0.2 mg/ml) applied to the inner and outer surfaces of each pinna (i.e. 5 μL per ear surface). Mice were anaesthetised again to remeasure the ears at 1 hr post-AA application or at 5 hr post-PMA application.
(§3) The difference in ear swelling pre- and post-application of inflammogen for each ear was calculated. The difference in mean swelling of each test group compared to the group given vehicle alone was calculated using a two-tailed unpaired t-test (Prism 4, Graphpad Software).

[3] = test system: BALB/c mice (PMA-induced ear swelling); test: Murine ear inflammation assay, PMA-induced ear swelling; type: in vivo, mouse; conditions: 25 mg/kg i/p; for % Change compared with vehicle / Change in ear thickness (mean ± SD, ×0.01 mm): PMA, 5 hr post-PMA
Description: as §1, §2, §3

EC50 [1]: 47 µM
SMILES: Cc1c(O)ccc2c1OCC(c1cccc(O)c1)=C2 [Cpd. 14, 3′,7-Dihydroxy-8-methylisoflav-3-ene]
synthesis of TNFα (TNFα): tended to do so
Time taken to reach half-lysis (red blood cells): 134.7 min
extracellular superoxide production, % change compared with vehicle control (superoxide; 10 μM): −20%
extracellular superoxide production, % change compared with vehicle control (superoxide; 100 μM): −20%
inhibition of superoxide production (superoxide): trend towards inhibition
IC50 (HCASMC): 54 µM
ear oedema caused by the application of AA [2]: significant reduction
% Change compared with vehicle [2]: −34%
Change in ear thickness (mean ± SD, ×0.01 mm) [2]: 10.7 ± 2.9 ×0.01 mm
% Change compared with vehicle [3]: +7%
Change in ear thickness (mean ± SD, ×0.01 mm) [3]: 27.9 ± 3.8 ×0.01 mm

EC50 [1]: 45 µM
SMILES: COc1cccc(C2=Cc3ccc(O)cc3OC2)c1 [Cpd. 16, 7-Hydroxy-3′-methoxyisoflav-3-ene]
synthesis of TNFα (TNFα): tended to do so
Time taken to reach half-lysis (red blood cells): 164.3 min
extracellular superoxide production, % change compared with vehicle control (superoxide; 10 μM): −22%
extracellular superoxide production, % change compared with vehicle control (superoxide; 100 μM): −57* %
inhibition of superoxide production (superoxide): significantly inhibited
IC50 (HCASMC): 118 µM
ear oedema caused by the application of AA [2]: significant reduction
% Change compared with vehicle [2]: −29%
Change in ear thickness (mean ± SD, ×0.01 mm) [2]: 11.6 ± 2.9 ×0.01 mm
% Change compared with vehicle [3]: −11%
Change in ear thickness (mean ± SD, ×0.01 mm) [3]: 23.3 ± 4.5 ×0.01 mm

EC50 [1]: 48 µM
SMILES: COc1ccc(C2=Cc3ccc(O)cc3OC2)cc1OC [Cpd. 18, 7-Hydroxy-3′,4′-dimethoxyisoflav-3-ene]
synthesis of TNFα (TNFα): inhibited
Time taken to reach half-lysis (red blood cells): 107.7 min
extracellular superoxide production, % change compared with vehicle control (superoxide; 10 μM): −24%
extracellular superoxide production, % change compared with vehicle control (superoxide; 100 μM): −36* %
IC50 (HCASMC): 88 µM
ear oedema caused by the application of AA [2]: significant reduction
% Change compared with vehicle [2]: −40%
Change in ear thickness (mean ± SD, ×0.01 mm) [2]: 8.4 ± 3.7 ×0.01 mm
% Change compared with vehicle [3]: −1%
Change in ear thickness (mean ± SD, ×0.01 mm) [3]: 29.6 ± 2.7 ×0.01 mm

EC50 [1]: 74 µM
SMILES: COc1ccc(C2=Cc3ccc(O)c(C)c3OC2)cc1OC [Cpd. 19, 7-Hydroxy-3′,4′-dimethoxy-8-methylisoflav-3-ene]
synthesis of TNFα (TNFα): inhibited
Time taken to reach half-lysis (red blood cells): 111.6 min
extracellular superoxide production, % change compared with vehicle control (superoxide; 10 μM): −11%
extracellular superoxide production, % change compared with vehicle control (superoxide; 100 μM): 16%
inhibition of superoxide production (superoxide): trend towards inhibition
IC50 (HCASMC): 63 µM
ear oedema caused by the application of AA [2]: significant reduction
% Change compared with vehicle [2]: −34%
Change in ear thickness (mean ± SD, ×0.01 mm) [2]: 9.3 ± 3.9 ×0.01 mm
inflammation caused by the application of PMA [3]: significantly inhibited
% Change compared with vehicle [3]: −26%
Change in ear thickness (mean ± SD, ×0.01 mm) [3]: 22.1 ± 3.9 ×0.01 mm

EC50 [1]: 24 µM
SMILES: Oc1ccc(C2=Cc3ccc(O)c(Br)c3OC2)cc1 [Cpd. 20, 4′,7-Dihydroxy-8-bromoisoflav-3-ene]
synthesis of TNFα (TNFα): tended to do so
Time taken to reach half-lysis (red blood cells): 122.0 min
extracellular superoxide production, % change compared with vehicle control (superoxide; 10 μM): 6%
extracellular superoxide production, % change compared with vehicle control (superoxide; 100 μM): 28%
inhibition of superoxide production (superoxide): not active
IC50 (HCASMC): 27 µM
% Change compared with vehicle [2]: −11%
Change in ear thickness (mean ± SD, ×0.01 mm) [2]: 14.4 ± 6.1 ×0.01 mm
% Change compared with vehicle [3]: +4%
Change in ear thickness (mean ± SD, ×0.01 mm) [3]: 22.7 ± 4.7 ×0.01 mm

EC50 [1]: 43 µM
SMILES: Oc1ccc2c(c1)OCC(c1ccc(Br)cc1)=C2 [Cpd. 21, 4′-Bromo-7-hydroxyisoflav-3-ene]
synthesis of TNFα (TNFα): inhibited
Time taken to reach half-lysis (red blood cells): 140.8 min
extracellular superoxide production, % change compared with vehicle control (superoxide; 10 μM): −10%
extracellular superoxide production, % change compared with vehicle control (superoxide; 100 μM): −11%
inhibition of superoxide production (superoxide): trend towards inhibition
IC50 (HCASMC): 29 µM
% Change compared with vehicle [2]: −11%
Change in ear thickness (mean ± SD, ×0.01 mm) [2]: 14.4 ± 5.1 ×0.01 mm
% Change compared with vehicle [3]: +24%
Change in ear thickness (mean ± SD, ×0.01 mm) [3]: 27.2 ± 8.6 ×0.01 mm
